Source: patent US20140058103A1, “Inhibitors of PI3K-Delta and Methods of Their Use and Manufacture” (Exelixis, Inc., priority 2010, published 2014)

Target: PI3K delta (Homo sapiens, UniProt O00329)
Assay: Luciferase-coupled chemiluminescence kinase assay (ATP consumption, KinaseGlo)
Type: biochemical
Method in brief: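 Compound, kinase and ATP (≤ KM) reacted 2 h at ambient temperature, then remaining ATP quantified with luciferase-luciferin (KinaseGlo) luminescence as percent consumed.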

Sequence of PI3K delta (O00329 whole entry): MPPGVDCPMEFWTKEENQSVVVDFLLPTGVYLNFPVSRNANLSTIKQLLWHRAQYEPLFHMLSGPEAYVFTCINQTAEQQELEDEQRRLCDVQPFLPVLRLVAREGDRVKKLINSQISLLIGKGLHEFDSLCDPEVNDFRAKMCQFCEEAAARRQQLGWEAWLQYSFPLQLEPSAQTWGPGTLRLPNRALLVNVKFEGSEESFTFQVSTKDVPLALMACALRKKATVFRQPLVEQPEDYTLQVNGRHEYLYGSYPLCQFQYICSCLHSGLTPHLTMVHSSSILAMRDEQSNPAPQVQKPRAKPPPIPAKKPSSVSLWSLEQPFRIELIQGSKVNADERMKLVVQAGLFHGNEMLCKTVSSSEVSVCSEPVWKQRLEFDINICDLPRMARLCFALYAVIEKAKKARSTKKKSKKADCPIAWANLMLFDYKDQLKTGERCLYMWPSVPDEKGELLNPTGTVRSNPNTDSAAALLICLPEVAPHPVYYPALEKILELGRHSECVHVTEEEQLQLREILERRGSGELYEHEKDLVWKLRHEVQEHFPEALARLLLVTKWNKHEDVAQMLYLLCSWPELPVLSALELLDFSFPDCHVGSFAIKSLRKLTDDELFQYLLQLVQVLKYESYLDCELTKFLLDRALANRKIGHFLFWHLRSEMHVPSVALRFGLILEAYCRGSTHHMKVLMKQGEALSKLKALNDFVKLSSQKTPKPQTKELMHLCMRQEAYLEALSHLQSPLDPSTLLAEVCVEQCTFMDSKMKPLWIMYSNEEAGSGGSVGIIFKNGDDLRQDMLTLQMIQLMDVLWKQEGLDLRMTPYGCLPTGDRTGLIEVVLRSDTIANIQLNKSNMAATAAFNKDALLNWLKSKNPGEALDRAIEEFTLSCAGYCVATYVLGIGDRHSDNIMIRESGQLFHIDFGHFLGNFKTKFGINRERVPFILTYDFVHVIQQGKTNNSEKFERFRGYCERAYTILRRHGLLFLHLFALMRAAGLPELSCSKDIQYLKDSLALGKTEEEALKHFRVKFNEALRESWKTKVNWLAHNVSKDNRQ
Sequence of PI3K delta (P27986 whole entry partner): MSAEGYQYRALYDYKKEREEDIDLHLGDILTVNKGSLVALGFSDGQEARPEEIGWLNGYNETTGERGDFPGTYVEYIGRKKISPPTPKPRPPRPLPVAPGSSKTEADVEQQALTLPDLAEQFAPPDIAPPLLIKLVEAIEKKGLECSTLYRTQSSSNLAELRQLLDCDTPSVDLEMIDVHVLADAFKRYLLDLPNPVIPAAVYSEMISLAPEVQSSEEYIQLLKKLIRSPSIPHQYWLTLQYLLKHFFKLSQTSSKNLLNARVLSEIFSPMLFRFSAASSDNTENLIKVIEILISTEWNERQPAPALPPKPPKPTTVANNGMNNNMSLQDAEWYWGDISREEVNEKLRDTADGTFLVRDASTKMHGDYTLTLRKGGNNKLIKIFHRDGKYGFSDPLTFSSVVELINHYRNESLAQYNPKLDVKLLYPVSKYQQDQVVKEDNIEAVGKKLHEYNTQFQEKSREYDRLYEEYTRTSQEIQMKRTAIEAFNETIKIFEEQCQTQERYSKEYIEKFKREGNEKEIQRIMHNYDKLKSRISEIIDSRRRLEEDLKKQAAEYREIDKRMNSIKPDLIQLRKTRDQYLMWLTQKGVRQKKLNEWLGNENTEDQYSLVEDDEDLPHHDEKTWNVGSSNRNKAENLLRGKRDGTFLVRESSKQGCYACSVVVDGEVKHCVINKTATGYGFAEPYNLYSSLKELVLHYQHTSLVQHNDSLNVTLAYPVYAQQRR

SMILES	IC50
COc1cc(C)ccc1S(=O)(=O)N1CCN(c2ncnc3c2nc(-c2cnn(C)c2)n3C)CC1 [Compound 385, 9-methyl-6-(4-{[4-methyl-2-(methyloxy)phenyl]sulfonyl}-piperazin-1-yl)-8-(1-methyl-1H-pyrazol-4-yl)-9H-purine]	500 to 1500 nM
Cn1cc(-c2nc3c(N4CCC(n5c(=O)[nH]c6ncccc65)CC4)ncnc3n2C)cn1 [Compound 269, 1-{1-[9-methyl-8-(1-methyl-1H-pyrazol-4-yl)-9H-purin-6-yl]piperidin-4-yl}-1,3-dihydro-2H-imidazo[4,5-b]pyridin-2-one]	< 50 nM
Cn1c(C(=O)N2CC(O)C2)nc2c(N3CCC4(CC3)C(=O)Nc3ccccc34)ncnc21 [Compound 41, 1′-{8-[(3-hydroxyazetidin-1-yl)carbonyl]-9-methyl-9H-purin-6-yl}spiro[indole-3,4′-piperidin]-2(1H)-one]	50 to 250 nM
Cn1c(C(=O)NCC2CC2)nc2c(N3CC=C(n4c(=O)[nH]c5ccccc54)CC3)ncnc21 [Compound 289, N-(cyclopropylmethyl)-9-methyl-6-[4-(2-oxo-2,3-dihydro-1H-benzimidazol-1-yl)-3,6-dihydropyridin-1(2H)-yl]-9H-purine-8-carboxamide]	50 to 250 nM
CCn1c(C(=O)NCCCCO)nc2c(N3CCC(n4c(=O)[nH]c5ccccc54)CC3)ncnc21 [Compound 195, 9-ethyl-N-(4-hydroxybutyl)-6-[4-(2-oxo-2,3-dihydro-1H-benzimidazol-1-yl)piperidin-1-yl]-9H-purine-8-carboxamide]	< 50 nM
CN(C)CCN1C(=O)C2(CCN(c3ncnc4c3nc(C(=O)NCC3CC3)n4C)CC2)c2ccccc21 [Compound 397, N-(cyclopropylmethyl)-6-{1-[2-(dimethylamino)ethyl]-2-oxo-1,2-dihydro-1′H-spiro[indole-3,4′-piperidin]-1′-yl}-9-methyl-9H-purine-8-carboxamide]	500 to 1500 nM
Cn1c(C(=O)N2CCCCC2)nc2c(N3CCC4(CC3)C(=O)NCN4c3ccccc3)ncnc21 [Compound 9, 8-[9-methyl-8-(piperidin-1-ylcarbonyl)-9H-purin-6-yl]-1-phenyl-1,3,8-triazaspiro[4.5]decan-4-one]	50 to 250 nM
CC(NC(=O)c1nc2c(N3CCC4(CC3)C(=O)Nc3ccccc34)ncnc2n1C)c1ccccc1 (stereo not drawn) [Compound 23, 9-methyl-6-(2-oxo-1,2-dihydro-1′H-spiro[indole-3,4′-piperidin]-1′-yl)-N-(1-phenylethyl)-9H-purine-8-carboxamide]	500 to 1500 nM
Cn1c(C(=O)NCC2CC2)nc2c(N3CCC4(CC3)C(=O)Nc3ccccc34)ncnc21 [Compound 6, N-(Cyclopropylmethyl)-9-methyl-6-(2-oxo-1,2-dihydro-1′H-spiro[indole-3,4′-piperidin]-1′-yl)-9H-purine-8-carboxamide]	50 to 250 nM
CCOC(=O)Cn1cc(-c2nc3c(N4CCC(n5c(=O)[nH]c6ccccc65)CC4)ncnc3n2C)cn1 [Compound 181, ethyl (4-{9-methyl-6-[4-(2-oxo-2,3-dihydro-1H-benzimidazol-1-yl)piperidin-1-yl]-9H-purin-8-yl}-1H-pyrazol-1-yl)acetate]	250 to 500 nM
CCn1cc(-c2nc3c(N4CCC(n5c(=O)[nH]c6ccccc65)CC4)ncnc3n2CC)cn1 [Compound 244, 1-{1-[9-ethyl-8-(1-ethyl-1H-pyrazol-4-yl)-9H-purin-6-yl]piperidin-4-yl}-1,3-dihydro-2H-benzimidazol-2-one]	< 50 nM
CCCCc1nnc(-c2nc3c(N4CCC(n5c(=O)[nH]c6ccccc65)CC4)ncnc3n2C)o1 [Compound 232, 1-(1-[8-(5-butyl-1,3,4-oxadiazol-2-yl)-9-methyl-9H-purin-6-yl]piperidin-4-yl)-1,3-dihydro-2H-benzimidazol-2-one]	< 50 nM
Cn1c(C(=O)NCC(C)(C)C)nc2c(N3CCC4(CC3)C(=O)Nc3ccccc34)ncnc21 [Compound 96, N-(2,2-dimethylpropyl)-9-methyl-6-(2-oxo-1,2-dihydro-1′H-spiro[indole-3,4′-piperidin]-1′-yl)-9H-purine-8-carboxamide]	50 to 250 nM
Cc1cccc(C(=O)NCc2ccccc2N2CCN(c3ncnc4c3nc(-c3cnn(C)c3)n4C)CC2)c1 [Compound 363, 3-methyl-N-[(2-{4-[9-methyl-8-(1-methyl-1H-pyrazol-4-yl)-9H-purin-6-yl]piperazin-1-yl}phenyl)methyl]benzamide]	250 to 500 nM
CCn1c(-c2ccc(C(F)(F)F)nc2)nc2c(N3CCC4(CC3)C(=O)Nc3ccccc34)ncnc21 [Compound 324, 1′-{9-ethyl-8-[6-(trifluoromethyl)pyridin-3-yl]-9H-purin-6-yl}spiro[indole-3,4′-piperidin]-2(1H)-one]	< 50 nM
CCn1c(C(=O)NCC2CC2)nc2c(N3CCC4(CC3)C(=O)Nc3ccccc34)ncnc21 [Compound 163, N-(cyclopropylmethyl)-9-ethyl-6-(2-oxo-1,2-dihydro-1′H-spiro[indole-3,4′-piperidin]-1′-yl)-9H-purine-8-carboxamide]	< 50 nM
Cn1c(-c2ccco2)nc2c(N3CCC(n4c(=O)[nH]c5ccccc54)CC3)ncnc21 [Compound 116, 1-[1-(8-furan-2-yl-9-methyl-9H-purin-6-yl)piperidin-4-yl]-1,3-dihydro-2H-benzimidazol-2-one]	250 to 500 nM

SMILES	IC50
CCn1c(C(=O)NCC2(O)CC2)nc2c(N3CCC(n4c(=O)[nH]c5ccccc54)CC3)ncnc21 [Compound 188, 9-ethyl-N-[(1-hydroxycyclopropyl)methyl]-6-[4-(2-oxo-2,3-dihydro-1H-benzimidazol-1-yl)piperidin-1-yl]-9H-purine-8-carboxamide]	< 50 nM
C/C=C/c1nc2c(N3CCC(n4c(=O)[nH]c5ccccc54)CC3)ncnc2n1C [Compound 144, 1-(1-{9-methyl-8-[(1E)-prop-1-en-1-yl]-9H-purin-6-yl}piperidin-4-yl)-1,3-dihydro-2H-benzimidazol-2-one]	500 to 1500 nM
Cn1c(C(=O)N2CCCC2)nc2c(N3CCC4(CC3)C(=O)NCN4c3ccccc3)ncnc21 [Compound 8, 8-[9-methyl-8-(pyrrolidin-1-ylcarbonyl)-9H-purin-6-yl]-1-phenyl-1,3,8-triazaspiro[4.5]decan-4-one]	250 to 500 nM
Cn1c(C(=O)NCCCO)nc2c(N3CCC(n4c(=O)[nH]c5ccccc54)CC3)ncnc21 [Compound 48, N-(3-hydroxypropyl)-9-methyl-6-[4-(2-oxo-2,3-dihydro-1H-benzimidazol-1-yl)piperidin-1-yl]-9H-purine-8-carboxamide]	50 to 250 nM
CON(C)C(=O)c1nc2c(N3CCC(n4c(=O)[nH]c5ccccc54)CC3)ncnc2n1C [Compound 94, N,9-dimethyl-N-(methyloxy)-6-[4-(2-oxo-2,3-dihydro-1H-benzimidazol-1-yl)piperidin-1-yl]-9H-purine-8-carboxamide]	500 to 1500 nM
CCNC(=O)c1nc2c(N3CCC4(CC3)C(=O)Nc3ccccc34)ncnc2n1CC [Compound 219, N,9-diethyl-6-(2-oxo-1,2-dihydro-1′H-spiro[indole-3,4′-piperidin]-1′-yl)-9H-purine-8-carboxamide]	< 50 nM
Cn1cc(-c2nc3c(N4CCC(n5c(=O)[nH]c6ccccc65)CC4)ncnc3n2C)cn1 [Compound 149, 1-{1-[9-Methyl-8-(1-methyl-1H-pyrazol-4-yl)-9H-purin-6-yl]piperidin-4-yl}-1,3-dihydro-2H-benzimidazol-2-one]	< 50 nM
Cn1cc(-c2nc3c(N4CCN(S(=O)(=O)c5cccc(C(F)(F)F)c5)CC4)ncnc3n2C)cn1 [Compound 377, 9-methyl-8-(1-methyl-1H-pyrazol-4-yl)-6-(4-{[3-(trifluoromethyl)phenyl]sulfonyl}-piperazin-1-yl)-9H-purine]	250 to 500 nM
Cn1c(C(=O)NCC2CC2)nc2c(N3CCC4(CC3)NC(=O)c3ccccc34)ncnc21 [Compound 142, N-(cyclopropylmethyl)-9-methyl-6-(3-oxo-2,3-dihydro-1′H-spiro[isoindole-1,4′-piperidir]-1′-yl)-9H-purine-8-carboxamide]	500 to 1500 nM
CCn1c(-c2cn[nH]c2)nc2c(N3CCC4(CC3)C(=O)Nc3ccccc34)ncnc21 [Compound 252, 1′-[9-ethyl-8-(1H-pyrazol-4-yl)-9H-purin-6-yl]spiro[indole-3,4′-piperidin]-2(1H)-one]	< 50 nM
CC(=O)c1ccc(S(=O)(=O)N2CCN(c3ncnc4c3nc(-c3cnn(C)c3)n4C)CC2)cc1 [Compound 384, 1-[4-({4-[9-methyl-8-(1-methyl-1H-pyrazol-4-yl)-9H-purin-6-yl]piperazin-1-yl)sulfonyl)phenyl]ethanone]	500 to 1500 nM
Cn1c(C(=O)NCC2CCOCC2)nc2c(N3CCC4(CC3)C(=O)Nc3ccccc34)ncnc21 [Compound 77, 9-methyl-6-(2-oxo-1,2-dihydro-1′H-spiro[indole-3,4′-piperidin]-1′-yl)-N-(tetrahydro-2H-pyran-4-ylmethyl)-9H-purine-8-carboxamide]	50 to 250 nM
Cn1c(C(=O)NCC(F)(F)F)nc2c(N3CCC(n4c(=O)[nH]c5ncccc54)CC3)ncnc21 [Compound 319, 9-methyl-6-[4-(2-oxo-2,3-dihydro-1H-imidazo[4,5-b]pyridin-1-yl)piperidin-1-yl]-N-(2,2,2-trifluoroethyl)-9H-purine-8-carboxamide]	< 50 nM
Cn1c(C(=O)NCc2ccc(F)cc2F)nc2c(N3CCC4(CC3)C(=O)Nc3ccccc34)ncnc21 [Compound 33, N-[(2,4-difluorophenyl)methyl]-9-methyl-6-(2-oxo-1,2-dihydro-1′H-spiro[indole-3,4′-piperidin]-1′-yl)-9H-purine-8-carboxamide]	500 to 1500 nM
CCc1nnc(-c2nc3c(N4CCC5(CC4)C(=O)Nc4ccccc45)ncnc3n2C)o1 [Compound 182, 1′-[8-(5-ethyl-1,3,4-oxadiazol-2-yl)-9-methyl-9H-purin-6-yl]spiro[indole-3,4′-piperidin]-2(1H)-one]	< 50 nM
Cn1cc(-c2nc3c(N4CC[C@@H](n5c(=O)[nH]c6ccccc65)[C@H](C(=O)O)C4)ncnc3n2C)cn1 [Compound 347, (3R,4R)-1-[9-methyl-8-(1-methyl-1H-pyrazol-4-yl)-9H-purin-6-yl]-4-(2-oxo-2,3-dihydro-1H-benzimidazol-1-yl)piperidine-3-carboxylic acid]	500 to 1500 nM
